According to ChEMBL document CHEMBL4840352 (J Med Chem, 2021):
Calls of active or inactive are those of the source. The rule behind the calls is not given here.

Experiments:
[1] = biological target: Platelet-derived growth factor receptor beta (Homo sapiens) (UniProt P09619); experiment: Induction of PDGFR degradation in human MOLM-13 cells at 0 to 25 nM after 24 hrs by Western blot analysis; assay type: cell-based; details: dose 0-25 nM
[2] = biological target: Receptor tyrosine-protein kinase erbB-4 (Homo sapiens) (UniProt Q15303); details: dose 1000.0 nM
Description: Inhibition of HER4 (unknown origin) at 1000 nM relative to control

[3] = biological target: Mast/stem cell growth factor receptor Kit (Homo sapiens) (UniProt P10721); experiment: Inhibition of KIT in human MV4-11 cells assessed as reduction in PI3K phosphorylation at 5 to 25 nM after 24 hrs by Western blot analysis; assay type: cell-based; details: dose 5-25 nM
[4] = biological target: Tyrosine-protein kinase receptor UFO (Homo sapiens) (UniProt P30530); details: dose 1000.0 nM
Description: Inhibition of AXL (unknown origin) at 1000 nM relative to control

[5] = biological target: CDK7/Cyclin H/MNAT1 (Homo sapiens) (UniProt P51946+P50613+P51948); experiment: Inhibition of CDK7/cyclinH/MAT1 (unknown origin) at 1000 nM relative to control; assay type: protein-complex assay
[6] = system: Receptor-type tyrosine-protein kinase FLT3 (Homo sapiens), P36888 [UNDEFINED MUTATION]; experiment: Induction of FLT3-ITD degradation in human MV4-11 cells at 20 nM pretreated with MG132 for 2 hrs followed compound addition for 6 hrs by Western blot analysis; assay type: cell-based
[7] = biological target: Receptor tyrosine-protein kinase erbB-2 (Homo sapiens) (UniProt P04626); experiment: Inhibition of HER2 (unknown origin) at 1000 nM relative to control
[8] = biological target: Fibroblast growth factor receptor 1 (Homo sapiens) (UniProt P11362); details: dose 1000.0 nM
Description: Inhibition of FGFR1 (unknown origin) at 1000 nM relative to control

[9] = biological target: Tyrosine-protein kinase JAK3 (Homo sapiens) (UniProt P52333); experiment: Inhibition of JAK3 (unknown origin) at 1000 nM relative to control
[10] = biological target: Rho-associated protein kinase 1 (Homo sapiens) (UniProt Q13464); experiment: Inhibition of ROCK1 (unknown origin) at 1000 nM relative to control
MOLM-13 [11] = experiment: Induction of apoptosis in human MOLM-13 cells assessed as downregulation of Bcl-2 level at 15 nM measured upto 12 hrs by Western blot analysis; assay type: functional, cell-based; details: time hrs <=12
[12] = biological target: Vascular endothelial growth factor receptor 2 (Homo sapiens) (UniProt P35968); details: dose 1000.0 nM
Description: Inhibition of KDR (unknown origin) at 1000 nM relative to control

[13] = biological target: Mitogen-activated protein kinase 3 (Homo sapiens) (UniProt P27361); experiment: Inhibition of ERK1 (unknown origin) at 1000 nM relative to control
MOLM-13 [14] = experiment: Induction of apoptosis in human MOLM-13 cells assessed as downregulation of Mcl-1 level at 15 nM measured upto 12 hrs by Western blot analysis; assay type: functional, cell-based; details: time hrs <=12
[15] = biological target: Mitogen-activated protein kinase 8 (Homo sapiens) (UniProt P45983); experiment: Inhibition of JNK1 (unknown origin) at 1000 nM relative to control
MV4-11 [16] = experiment: Induction of apoptosis in human MV4-11 cells assessed as upregulation of cleaved caspase-3 level at 15 nM by Western blot analysis; assay type: functional, cell-based; details: time 0-12 hrs, TDE = time-dependent effect
MV4-11 [17] = experiment: Reduction in intracellular ROS level in human MV4-11 cells measured after 12 hrs by DCFH-DA probe based flow cytometry; assay type: functional, cell-based; details: dose 25-200 nM
[18] = biological target: Serine/threonine-protein kinase TBK1 (Homo sapiens) (UniProt Q9UHD2); experiment: Inhibition of TBK1 (unknown origin) at 1000 nM relative to control
[19] = biological target: Serine/threonine-protein kinase Chk2 (Homo sapiens) (UniProt O96017); experiment: Inhibition of CHK2 (unknown origin) at 1000 nM relative to control
[20] = system: Receptor-type tyrosine-protein kinase FLT3 (Homo sapiens), P36888 [UNDEFINED MUTATION]; experiment: Induction of FLT3-ITD degradation in human MV4-11 cells assessed as accumulation of ubiquitinated FLT3-ITD at 15 nM preincubated for 4 hrs followed by MG132 addition for 2 hrs by immunoprecipitation assay; assay type: cell-based; details: time 6.0 hrs
[21] = system: Receptor-type tyrosine-protein kinase FLT3 (Homo sapiens), P36888 [UNDEFINED MUTATION]; experiment: Induction of FLT3-ITD degradation in human MV4-11 cells at 20 nM pretreated with dov for 2 hrs followed compound addition for 6 hrs by Western blot analysis; assay type: cell-based
[22] = biological target: Aurora kinase A (Homo sapiens) (UniProt O14965); experiment: Inhibition of AURORA-A (unknown origin) at 1000 nM relative to control
[23] = biological target: Receptor-type tyrosine-protein kinase FLT3 (Homo sapiens) (UniProt P36888); experiment: Inhibition of FLT3 in human MV4-11 cells assessed as reduction in AKT phosphorylation at 15 nM by Western blot analysis; assay type: cell-based; details: time 0-12 hrs, TDE = time-dependent effect
[24] = biological target: Mitogen-activated protein kinase 1 (Homo sapiens) (UniProt P28482); experiment: Inhibition of ERK2 (unknown origin) at 1000 nM relative to control
[25] = biological target: Receptor-type tyrosine-protein kinase FLT3 (Homo sapiens) (UniProt P36888); experiment: Inhibition of FLT3 in human MOLM-13 cells assessed as reduction in ERK phosphorylation at 15 nM by Western blot analysis; assay type: cell-based; details: time 0-12 hrs, TDE = time-dependent effect
[26] = biological target: Mitogen-activated protein kinase 1 (Homo sapiens) (UniProt P28482); experiment: Inhibition of MAPK2 (unknown origin) at 1000 nM relative to control
MOLM-13 [27] = experiment: Induction of apoptosis in human MOLM-13 cells assessed as upregulation of cleaved caspase-3 level at 15 nM by Western blot analysis; assay type: functional, cell-based; details: time 0-12 hrs, TDE = time-dependent effect
[28] = biological target: Receptor-type tyrosine-protein kinase FLT3 (Homo sapiens) (UniProt P36888); experiment: Inhibition of FLT3 in human MV4-11 cells assessed as reduction in FLT3 phosphorylation at 15 nM by Western blot analysis; assay type: cell-based; details: time 0-12 hrs, TDE = time-dependent effect
[29] = biological target: Proto-oncogene tyrosine-protein kinase Src (Homo sapiens) (UniProt P12931); experiment: Inhibition of SRC (unknown origin) at 1000 nM relative to control
[30] = biological target: Receptor-type tyrosine-protein kinase FLT3 (Homo sapiens) (UniProt P36888); details: dose 1000.0 nM
Description: Inhibition of FLT3 (unknown origin) at 1000 nM relative to control

[31] = system: Receptor-type tyrosine-protein kinase FLT3 (Homo sapiens), P36888 [UNDEFINED MUTATION]; experiment: Induction of FLT3-ITD degradation in human MOLM-13 cells after 24 hrs by Western blot analysis; assay type: cell-based
[32] = biological target: Receptor-type tyrosine-protein kinase FLT3 (Homo sapiens) (UniProt P36888); experiment: Inhibition of FLT3 in human MOLM-13 cells assessed as reduction in FLT3 phosphorylation at 15 nM by Western blot analysis; assay type: cell-based; details: time 0-12 hrs, TDE = time-dependent effect
[33] = biological target: Receptor-type tyrosine-protein kinase FLT3 (Homo sapiens) (UniProt P36888); experiment: Inhibition of FLT3 in human MOLM-13 cells assessed as reduction in AKT phosphorylation at 15 nM by Western blot analysis; assay type: cell-based; details: time 0-12 hrs, TDE = time-dependent effect
[34] = biological target: Tyrosine-protein kinase ABL1 (Homo sapiens) (UniProt P00519); details: dose 1000.0 nM
Description: Inhibition of ABL (unknown origin) at 1000 nM relative to control

MV4-11 [35] = experiment: Induction of apoptosis in human MV4-11 cells assessed as downregulation of Mcl-1 level at 15 nM measured upto 12 hrs by Western blot analysis; assay type: functional, cell-based; details: time hrs <=12
[36] = biological target: Homeodomain-interacting protein kinase 1 (Homo sapiens) (UniProt Q86Z02); details: dose 1000.0 nM
Description: Inhibition of HIPK1 (unknown origin) at 1000 nM relative to control

[37] = biological target: Casein kinase I isoform alpha-like (Homo sapiens) (UniProt Q8N752); experiment: Inhibition of CK1A1 (unknown origin) at 1000 nM relative to control
[38] = biological target: Mitogen-activated protein kinase kinase kinase 14 (Homo sapiens) (UniProt Q99558); experiment: Inhibition of NIK (unknown origin) at 1000 nM relative to control

Chain of Receptor-type tyrosine-protein kinase FLT3 (Homo sapiens), P36888 [UNDEFINED MUTATION] (P36888 whole entry, looked up, change not shown): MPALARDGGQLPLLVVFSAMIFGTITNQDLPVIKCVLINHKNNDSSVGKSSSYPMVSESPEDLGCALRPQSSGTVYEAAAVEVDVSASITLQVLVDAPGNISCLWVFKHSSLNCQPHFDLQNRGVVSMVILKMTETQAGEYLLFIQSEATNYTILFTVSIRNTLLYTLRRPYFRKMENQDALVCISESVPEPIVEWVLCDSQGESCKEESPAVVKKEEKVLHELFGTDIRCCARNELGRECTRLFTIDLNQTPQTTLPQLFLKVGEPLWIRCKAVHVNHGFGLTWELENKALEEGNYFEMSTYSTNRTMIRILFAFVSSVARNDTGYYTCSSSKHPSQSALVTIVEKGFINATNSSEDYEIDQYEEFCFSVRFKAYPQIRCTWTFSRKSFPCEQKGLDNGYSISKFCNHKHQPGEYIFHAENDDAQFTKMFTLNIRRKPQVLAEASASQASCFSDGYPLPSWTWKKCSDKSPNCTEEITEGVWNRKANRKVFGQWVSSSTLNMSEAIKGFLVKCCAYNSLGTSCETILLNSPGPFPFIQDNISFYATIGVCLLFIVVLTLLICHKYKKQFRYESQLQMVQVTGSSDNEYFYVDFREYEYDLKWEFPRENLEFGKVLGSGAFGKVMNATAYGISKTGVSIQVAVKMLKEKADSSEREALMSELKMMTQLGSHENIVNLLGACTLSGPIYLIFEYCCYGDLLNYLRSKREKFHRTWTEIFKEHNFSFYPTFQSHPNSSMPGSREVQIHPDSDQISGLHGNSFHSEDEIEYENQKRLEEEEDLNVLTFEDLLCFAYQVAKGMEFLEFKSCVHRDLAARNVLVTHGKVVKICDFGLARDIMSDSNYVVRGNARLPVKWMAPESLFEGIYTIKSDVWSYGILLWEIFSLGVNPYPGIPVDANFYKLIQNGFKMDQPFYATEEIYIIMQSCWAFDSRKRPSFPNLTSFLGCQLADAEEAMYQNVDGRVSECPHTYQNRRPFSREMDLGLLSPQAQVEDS
Chain of Receptor-type tyrosine-protein kinase FLT3 (Homo sapiens) (P36888 whole entry): as the sequence (P36888 whole entry, looked up, change not shown) above
Chain of Mitogen-activated protein kinase 1 (Homo sapiens) (P28482 whole entry): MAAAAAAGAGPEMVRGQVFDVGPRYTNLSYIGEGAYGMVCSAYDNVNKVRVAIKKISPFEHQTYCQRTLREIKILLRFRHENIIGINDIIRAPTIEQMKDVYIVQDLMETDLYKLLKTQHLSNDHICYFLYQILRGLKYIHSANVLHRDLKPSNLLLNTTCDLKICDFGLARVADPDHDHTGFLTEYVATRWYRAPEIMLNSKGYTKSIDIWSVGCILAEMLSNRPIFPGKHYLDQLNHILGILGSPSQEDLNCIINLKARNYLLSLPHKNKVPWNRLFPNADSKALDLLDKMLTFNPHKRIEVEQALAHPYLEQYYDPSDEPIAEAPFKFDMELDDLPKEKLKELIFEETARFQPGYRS
Chain of Tyrosine-protein kinase receptor UFO (Homo sapiens) (P30530 whole entry): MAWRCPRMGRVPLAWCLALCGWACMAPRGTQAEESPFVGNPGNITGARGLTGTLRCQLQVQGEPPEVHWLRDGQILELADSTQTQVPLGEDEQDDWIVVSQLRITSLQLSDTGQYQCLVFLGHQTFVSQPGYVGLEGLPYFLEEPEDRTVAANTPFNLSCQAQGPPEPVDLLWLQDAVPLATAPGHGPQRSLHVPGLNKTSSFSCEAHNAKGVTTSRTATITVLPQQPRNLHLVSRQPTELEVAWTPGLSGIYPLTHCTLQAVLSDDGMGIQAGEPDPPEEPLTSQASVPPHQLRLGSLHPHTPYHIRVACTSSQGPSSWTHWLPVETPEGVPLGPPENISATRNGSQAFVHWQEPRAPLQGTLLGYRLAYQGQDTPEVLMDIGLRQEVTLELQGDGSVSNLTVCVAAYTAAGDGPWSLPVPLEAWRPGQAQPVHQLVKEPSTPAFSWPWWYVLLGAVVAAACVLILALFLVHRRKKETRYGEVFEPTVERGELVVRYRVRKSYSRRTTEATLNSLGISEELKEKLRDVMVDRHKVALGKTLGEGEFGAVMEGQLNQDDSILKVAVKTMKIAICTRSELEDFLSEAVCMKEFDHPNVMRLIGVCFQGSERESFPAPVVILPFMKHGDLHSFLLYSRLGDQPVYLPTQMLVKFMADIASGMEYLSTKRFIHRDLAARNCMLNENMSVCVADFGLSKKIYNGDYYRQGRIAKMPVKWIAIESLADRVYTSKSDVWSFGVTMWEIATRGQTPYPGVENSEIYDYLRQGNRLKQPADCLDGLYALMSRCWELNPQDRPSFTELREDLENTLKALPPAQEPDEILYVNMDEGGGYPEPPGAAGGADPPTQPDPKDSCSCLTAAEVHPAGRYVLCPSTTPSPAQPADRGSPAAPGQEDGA
Chain of Mitogen-activated protein kinase 3 (Homo sapiens) (P27361 whole entry): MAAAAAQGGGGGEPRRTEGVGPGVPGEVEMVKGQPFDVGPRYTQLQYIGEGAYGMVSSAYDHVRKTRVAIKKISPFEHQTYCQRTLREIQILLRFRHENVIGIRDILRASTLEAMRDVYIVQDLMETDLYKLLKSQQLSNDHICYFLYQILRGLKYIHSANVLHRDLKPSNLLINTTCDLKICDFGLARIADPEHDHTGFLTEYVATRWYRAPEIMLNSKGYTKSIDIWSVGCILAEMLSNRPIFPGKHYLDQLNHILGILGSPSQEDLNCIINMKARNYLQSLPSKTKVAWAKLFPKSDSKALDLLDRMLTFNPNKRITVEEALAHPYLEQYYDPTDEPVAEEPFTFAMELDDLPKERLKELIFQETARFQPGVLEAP
Chain of Receptor tyrosine-protein kinase erbB-4 (Homo sapiens) (Q15303 whole entry): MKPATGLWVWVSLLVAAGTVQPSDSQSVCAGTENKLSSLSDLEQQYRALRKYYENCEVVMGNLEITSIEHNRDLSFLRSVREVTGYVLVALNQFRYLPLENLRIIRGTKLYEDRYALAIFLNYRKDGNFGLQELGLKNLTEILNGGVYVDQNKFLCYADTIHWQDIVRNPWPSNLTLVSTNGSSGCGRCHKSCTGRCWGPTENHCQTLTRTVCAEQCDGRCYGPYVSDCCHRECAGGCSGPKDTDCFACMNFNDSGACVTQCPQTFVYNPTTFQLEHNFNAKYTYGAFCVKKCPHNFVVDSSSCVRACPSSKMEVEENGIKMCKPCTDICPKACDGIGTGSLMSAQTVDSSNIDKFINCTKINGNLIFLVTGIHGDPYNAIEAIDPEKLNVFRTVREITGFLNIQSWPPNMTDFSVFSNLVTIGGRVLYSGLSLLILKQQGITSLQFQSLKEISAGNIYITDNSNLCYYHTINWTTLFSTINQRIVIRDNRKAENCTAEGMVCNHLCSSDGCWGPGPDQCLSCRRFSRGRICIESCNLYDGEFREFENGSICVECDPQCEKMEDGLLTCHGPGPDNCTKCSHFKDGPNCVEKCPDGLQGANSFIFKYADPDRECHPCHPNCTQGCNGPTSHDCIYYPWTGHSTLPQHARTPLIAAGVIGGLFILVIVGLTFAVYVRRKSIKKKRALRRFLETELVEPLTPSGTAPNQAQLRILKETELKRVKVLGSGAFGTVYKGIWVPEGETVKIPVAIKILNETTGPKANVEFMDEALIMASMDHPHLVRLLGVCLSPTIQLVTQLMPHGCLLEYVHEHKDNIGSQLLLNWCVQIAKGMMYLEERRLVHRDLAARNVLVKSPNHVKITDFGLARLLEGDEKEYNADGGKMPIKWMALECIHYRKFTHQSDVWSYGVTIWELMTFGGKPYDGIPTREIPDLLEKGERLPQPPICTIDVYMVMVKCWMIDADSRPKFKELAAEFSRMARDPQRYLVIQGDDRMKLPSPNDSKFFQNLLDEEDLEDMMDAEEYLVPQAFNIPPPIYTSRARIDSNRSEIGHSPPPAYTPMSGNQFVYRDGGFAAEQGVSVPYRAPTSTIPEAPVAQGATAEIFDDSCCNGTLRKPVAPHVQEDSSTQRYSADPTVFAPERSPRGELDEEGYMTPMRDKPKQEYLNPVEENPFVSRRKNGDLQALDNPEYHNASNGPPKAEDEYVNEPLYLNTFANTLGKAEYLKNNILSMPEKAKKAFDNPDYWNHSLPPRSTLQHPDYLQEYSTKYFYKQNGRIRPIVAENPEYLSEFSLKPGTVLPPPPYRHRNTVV
Chain of Proto-oncogene tyrosine-protein kinase Src (Homo sapiens) (P12931 2-536 limits assumed): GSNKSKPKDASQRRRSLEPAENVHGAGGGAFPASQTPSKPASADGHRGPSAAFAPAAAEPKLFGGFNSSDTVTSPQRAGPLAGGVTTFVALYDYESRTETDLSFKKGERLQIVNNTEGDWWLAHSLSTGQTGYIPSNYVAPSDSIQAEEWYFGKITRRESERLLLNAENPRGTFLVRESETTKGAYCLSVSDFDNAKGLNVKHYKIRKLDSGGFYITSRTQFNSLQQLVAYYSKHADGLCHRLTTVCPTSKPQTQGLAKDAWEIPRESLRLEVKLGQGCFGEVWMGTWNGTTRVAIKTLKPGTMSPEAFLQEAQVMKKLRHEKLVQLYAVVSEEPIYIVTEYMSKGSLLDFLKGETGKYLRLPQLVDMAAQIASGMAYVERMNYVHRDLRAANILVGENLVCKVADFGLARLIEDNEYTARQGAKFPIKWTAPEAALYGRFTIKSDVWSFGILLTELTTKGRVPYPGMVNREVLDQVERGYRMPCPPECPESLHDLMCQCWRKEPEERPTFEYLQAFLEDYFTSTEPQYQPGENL
Chain of Mitogen-activated protein kinase 8 (Homo sapiens) (P45983 whole entry): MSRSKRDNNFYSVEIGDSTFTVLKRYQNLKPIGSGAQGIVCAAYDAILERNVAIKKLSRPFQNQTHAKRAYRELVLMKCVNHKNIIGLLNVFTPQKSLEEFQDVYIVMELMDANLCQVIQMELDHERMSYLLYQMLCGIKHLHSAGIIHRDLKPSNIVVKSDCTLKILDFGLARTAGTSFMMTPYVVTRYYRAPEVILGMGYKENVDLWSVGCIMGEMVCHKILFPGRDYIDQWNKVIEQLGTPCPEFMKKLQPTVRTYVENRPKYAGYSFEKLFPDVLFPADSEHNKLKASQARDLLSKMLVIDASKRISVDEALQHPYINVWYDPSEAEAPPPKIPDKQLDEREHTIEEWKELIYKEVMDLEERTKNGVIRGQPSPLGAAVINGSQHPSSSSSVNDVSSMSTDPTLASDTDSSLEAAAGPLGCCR

## Nc1c(-c2nc3cc(N4CCN(C(=O)CCCCCNc5cccc6c5C(=O)N(C5CCC(=O)NC5=O)C6=O)CC4)ccc3[nH]2)c(=O)[nH]c2cccc(F)c12 (stereo not drawn)
[1]
  Activity: Active
[2]
  inhibition: 14%
[3]
  inhibition: Active
[4]
  inhibition: 20%
[5]
  inhibition: 0%
[6]
  Activity: inactive
[7]
  inhibition: 50%
[8]
  inhibition: 17%
[9]
  inhibition: 1%
[10]
  inhibition: 4%
MOLM-13 [11]
  Activity: Active
[12]
  inhibition: 69%
[13]
  inhibition: 4%
MOLM-13 [14]
  Activity: Active
[15]
  inhibition: -8%
MV4-11 [16]
  Activity: Tde
MV4-11 [17]
  Activity: Dose-Dependent Effect
[18]
  inhibition: 22%
[19]
  inhibition: 0%
[20]
  Activity: Active
[21]
  Activity: inactive
[22]
  inhibition: 17%
[23]
  inhibition: Tde
[24]
  inhibition: 38%
[25]
  inhibition: Tde
[26]
  inhibition: 54%
MOLM-13 [27]
  Activity: Tde
[28]
  inhibition: Tde
[29]
  inhibition: 37%
[30]
  inhibition: 93%
[31]
  Activity: Dose-Dependent Effect
[32]
  inhibition: Tde
[33]
  inhibition: Tde
[34]
  inhibition: 7%
MV4-11 [35]
  Activity: Active
[36]
  inhibition: 5%
[37]
  inhibition: 1%
[38]
  inhibition: 0%
